Tested on: mold on REF-PET bottles
Test: Mold Remove Ability Test
Conditions: alkaline bottlewashing environment; conditions not given
Method: 1. Mold Remove Ability Test A) Compositions are prepared according to the following general formula: [table] B) Select field returned bottles with heavy mold (black). Select 4 bottles per testing sequence. C) Cut the mold samples from REF-PET bottles using a utility knife. D) Label PET/mold pieces to keep track of the source bottle and the solution in which they are tested. E) Prepare solutions using 2.8% NaOH and 1% of the bottlewashing additive unless otherwise specified. F) Preheat the solutions to 55° C. G) Immerse PET/mold samples in respective bottlewashing compositions and soaked for 15 minutes with stirring at 400 rpm. H) If the mold is removed during testing note the time of removal. I) Remove the samples from solution. If the mold was not removed, rinse the sample in tap water for 10 seconds to see if mold can be removed at this point. J) Grade the samples by a % of mold removed and average the 4 tests as well as the time required for removal (Time Removal Grade). Time Grade is defined as follows: [table] Other Grades may be in between or lower depending on total mold removal

Substance: C6 alkyl diphenylene oxide disulfonate
- cleaning / mold removal by the surfactant (general statement): superior cleaning/mold removal characteristics
